Test results as given in paper PMC12621043, “Un-LOK-ing a New Approach for Conformational Selective Targeting of STK10 (LOK)” (ACS Medicinal Chemistry Letters, 2025).

Experiments:
Test in all cases: DSF Tm panel
Type in all cases: binding
Conditions in all cases: 10 μM compound
DYRK2A = molecular target: T1, DYRK2A (Homo sapiens, UniProt Q92630)
T1 construct: purchased in-house DSF kinase panel (SGC-style construct names; the trailing letter is the construct ID)
T1 sequence (Q92630 1-601): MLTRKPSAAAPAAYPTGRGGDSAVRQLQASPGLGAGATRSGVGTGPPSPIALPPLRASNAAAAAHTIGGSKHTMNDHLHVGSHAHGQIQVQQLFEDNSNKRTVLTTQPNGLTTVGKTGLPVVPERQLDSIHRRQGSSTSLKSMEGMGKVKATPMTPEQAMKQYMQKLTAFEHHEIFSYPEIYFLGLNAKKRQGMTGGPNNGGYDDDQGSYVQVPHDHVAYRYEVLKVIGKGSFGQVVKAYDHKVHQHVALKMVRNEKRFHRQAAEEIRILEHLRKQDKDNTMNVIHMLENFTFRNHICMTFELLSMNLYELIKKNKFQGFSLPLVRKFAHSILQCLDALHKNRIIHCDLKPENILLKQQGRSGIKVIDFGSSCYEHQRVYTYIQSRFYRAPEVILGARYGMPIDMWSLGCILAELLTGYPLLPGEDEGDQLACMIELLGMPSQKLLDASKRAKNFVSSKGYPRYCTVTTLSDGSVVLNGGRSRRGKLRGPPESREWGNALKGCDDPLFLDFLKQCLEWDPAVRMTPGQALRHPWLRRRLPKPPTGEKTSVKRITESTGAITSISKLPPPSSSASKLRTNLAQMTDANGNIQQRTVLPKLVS

CAMK2BA = molecular target: T2, CAMK2BA (Homo sapiens, UniProt Q13554)
T2 construct: purchased in-house DSF kinase panel (SGC-style construct names; the trailing letter is the construct ID)
T2 sequence (Q13554 11-303): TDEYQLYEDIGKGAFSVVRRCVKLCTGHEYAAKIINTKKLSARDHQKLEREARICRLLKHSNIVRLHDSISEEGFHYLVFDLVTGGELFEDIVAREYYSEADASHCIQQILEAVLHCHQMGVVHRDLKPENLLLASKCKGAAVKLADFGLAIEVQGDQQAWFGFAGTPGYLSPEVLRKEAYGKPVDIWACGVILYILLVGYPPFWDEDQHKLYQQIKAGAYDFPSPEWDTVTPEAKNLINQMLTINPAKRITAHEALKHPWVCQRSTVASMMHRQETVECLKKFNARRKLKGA

CAMKK2B = molecular target: T3, CAMKK2B (Homo sapiens, UniProt Q96RR4)
T3 construct: purchased in-house DSF kinase panel (SGC-style construct names; the trailing letter is the construct ID)
T3 sequence (Q96RR4 161-449): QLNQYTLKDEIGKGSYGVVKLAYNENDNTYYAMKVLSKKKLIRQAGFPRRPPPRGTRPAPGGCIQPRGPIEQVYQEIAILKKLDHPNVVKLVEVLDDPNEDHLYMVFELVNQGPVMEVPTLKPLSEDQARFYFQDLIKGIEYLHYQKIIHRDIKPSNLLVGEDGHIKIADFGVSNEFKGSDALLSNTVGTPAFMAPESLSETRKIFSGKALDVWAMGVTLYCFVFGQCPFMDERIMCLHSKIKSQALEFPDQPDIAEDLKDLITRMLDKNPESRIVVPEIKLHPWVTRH

CAMK1DA = molecular target: T4, CAMK1DA (Homo sapiens, UniProt Q8IU85)
T4 construct: purchased in-house DSF kinase panel (SGC-style construct names; the trailing letter is the construct ID)
T4 sequence (Q8IU85 whole entry): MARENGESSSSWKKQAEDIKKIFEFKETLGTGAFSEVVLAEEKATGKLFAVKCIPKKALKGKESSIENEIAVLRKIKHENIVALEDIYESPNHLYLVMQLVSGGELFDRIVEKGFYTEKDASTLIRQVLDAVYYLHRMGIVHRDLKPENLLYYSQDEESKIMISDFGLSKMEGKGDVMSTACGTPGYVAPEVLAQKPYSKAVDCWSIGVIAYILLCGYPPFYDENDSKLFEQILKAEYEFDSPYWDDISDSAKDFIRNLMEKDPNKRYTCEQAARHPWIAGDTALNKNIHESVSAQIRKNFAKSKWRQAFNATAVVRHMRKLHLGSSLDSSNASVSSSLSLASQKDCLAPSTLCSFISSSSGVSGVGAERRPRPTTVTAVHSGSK
Protocol: (§1) The synthesized urea-based derivatives were evaluated in a panel of kinases by differential scanning fluorescence (DSF) to investigate their selectivity profile. A positive ΔT m in the DSF assay indicates stabilization of the protein upon ligand binding in comparison to its apo state, with higher thermal shifts generally correlating with stronger binding. For this purpose, we used our internal kinase selectivity panel (∼90 kinases) along with staurosporine as a positive control. […] This was also reflected in the overall low selectivity score (S) throughout the series, which is determined by the ratio between the number of kinases that are stabilized above 5 °C and the total number of kinases tested (Figure ). Motivated by these findings, we further validated the entire series by orthogonal binding and activity assays to determine the in vitro and cellular potency and selectivity of the developed series in comparison to the selected reference compounds. […]
(§2) was performed as previously described.[1,2] Briefly, recombinant protein kinase domains at a concentration of 2 μM were mixed with 10 μM compound in a buffer containing 20 mM HEPES, […]
(§3) probe (1 µl per mL). Subsequently, temperature-dependent protein unfolding profiles were […]
(§4) emission filters were set to 465 nm and 590 nm, respectively. The temperature was raised with a step rate of 3 °C per minute. […]
(§5) inflection point of the transition curve. […]
(§6) previously.[3] In brief, STK10, STK3, STK4 and SLK were obtained as plasmids cloned in […]
(§7) Plasmids were transfected into
(§8) KD concentration taken from TracerDB (tracerdb.org)[4] were pipetted into white 384-well

MAP2K1A = molecular target: T5, MAP2K1A (Homo sapiens, UniProt Q02750)
T5 construct: purchased in-house DSF kinase panel (SGC-style construct names; the trailing letter is the construct ID)
T5 sequence (Q02750 68-361): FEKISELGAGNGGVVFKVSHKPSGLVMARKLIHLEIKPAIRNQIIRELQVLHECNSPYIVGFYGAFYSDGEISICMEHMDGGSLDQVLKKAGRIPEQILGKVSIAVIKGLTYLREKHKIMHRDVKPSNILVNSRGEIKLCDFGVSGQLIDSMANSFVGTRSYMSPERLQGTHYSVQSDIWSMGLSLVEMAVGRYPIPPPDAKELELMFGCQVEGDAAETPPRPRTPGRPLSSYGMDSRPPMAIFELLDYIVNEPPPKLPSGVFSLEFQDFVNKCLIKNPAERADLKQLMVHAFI
Protocol: as §1, §2, §3, §4, §5, §6, §7, §8

PAK1A = molecular target: T6, PAK1A (Homo sapiens, UniProt Q13153)
T6 construct: purchased in-house DSF kinase panel (SGC-style construct names; the trailing letter is the construct ID)
T6 sequence (Q13153 249-545): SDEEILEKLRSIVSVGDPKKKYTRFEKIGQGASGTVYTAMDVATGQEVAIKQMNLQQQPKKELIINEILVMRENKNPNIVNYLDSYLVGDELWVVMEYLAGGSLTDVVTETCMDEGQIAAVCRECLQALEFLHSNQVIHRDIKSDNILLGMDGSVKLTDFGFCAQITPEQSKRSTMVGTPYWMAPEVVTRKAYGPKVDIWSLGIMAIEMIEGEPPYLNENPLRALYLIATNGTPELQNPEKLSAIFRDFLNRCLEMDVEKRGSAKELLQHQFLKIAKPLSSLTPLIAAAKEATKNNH
Protocol: as §1, §2, §3, §4, §5, §6, §7, §8

PAK4A = molecular target: T7, PAK4A (Homo sapiens, UniProt O96013)
T7 construct: purchased in-house DSF kinase panel (SGC-style construct names; the trailing letter is the construct ID)
T7 sequence (O96013 291-591): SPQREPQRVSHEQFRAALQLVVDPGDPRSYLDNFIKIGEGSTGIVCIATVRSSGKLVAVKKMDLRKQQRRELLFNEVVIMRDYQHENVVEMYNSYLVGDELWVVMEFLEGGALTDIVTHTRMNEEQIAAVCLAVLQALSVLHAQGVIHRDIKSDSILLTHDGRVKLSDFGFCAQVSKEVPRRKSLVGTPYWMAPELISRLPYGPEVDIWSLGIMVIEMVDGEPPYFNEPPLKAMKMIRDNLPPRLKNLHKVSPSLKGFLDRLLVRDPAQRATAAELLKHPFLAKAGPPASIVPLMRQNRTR
Protocol: as §1, §2, §3, §4, §5, §6, §7, §8

CHEK2A = molecular target: T8, CHEK2A (Homo sapiens, UniProt O96017)
T8 construct: purchased in-house DSF kinase panel (SGC-style construct names; the trailing letter is the construct ID)
T8 sequence (O96017 210-531): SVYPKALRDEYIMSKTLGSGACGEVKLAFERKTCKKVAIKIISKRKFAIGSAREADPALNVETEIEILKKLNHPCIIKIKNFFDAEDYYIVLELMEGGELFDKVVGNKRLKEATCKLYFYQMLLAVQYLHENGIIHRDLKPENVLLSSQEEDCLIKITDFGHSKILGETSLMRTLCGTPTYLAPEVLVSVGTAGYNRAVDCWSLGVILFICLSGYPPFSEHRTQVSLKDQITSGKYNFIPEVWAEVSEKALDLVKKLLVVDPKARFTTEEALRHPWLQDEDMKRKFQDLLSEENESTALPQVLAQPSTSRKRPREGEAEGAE
Protocol: as §1, §2, §3, §4, §5, §6, §7, §8

EPHB3A = molecular target: T9, EPHB3A (Homo sapiens, UniProt P54753)
T9 construct: purchased in-house DSF kinase panel (SGC-style construct names; the trailing letter is the construct ID)
T9 sequence (P54753 34-998): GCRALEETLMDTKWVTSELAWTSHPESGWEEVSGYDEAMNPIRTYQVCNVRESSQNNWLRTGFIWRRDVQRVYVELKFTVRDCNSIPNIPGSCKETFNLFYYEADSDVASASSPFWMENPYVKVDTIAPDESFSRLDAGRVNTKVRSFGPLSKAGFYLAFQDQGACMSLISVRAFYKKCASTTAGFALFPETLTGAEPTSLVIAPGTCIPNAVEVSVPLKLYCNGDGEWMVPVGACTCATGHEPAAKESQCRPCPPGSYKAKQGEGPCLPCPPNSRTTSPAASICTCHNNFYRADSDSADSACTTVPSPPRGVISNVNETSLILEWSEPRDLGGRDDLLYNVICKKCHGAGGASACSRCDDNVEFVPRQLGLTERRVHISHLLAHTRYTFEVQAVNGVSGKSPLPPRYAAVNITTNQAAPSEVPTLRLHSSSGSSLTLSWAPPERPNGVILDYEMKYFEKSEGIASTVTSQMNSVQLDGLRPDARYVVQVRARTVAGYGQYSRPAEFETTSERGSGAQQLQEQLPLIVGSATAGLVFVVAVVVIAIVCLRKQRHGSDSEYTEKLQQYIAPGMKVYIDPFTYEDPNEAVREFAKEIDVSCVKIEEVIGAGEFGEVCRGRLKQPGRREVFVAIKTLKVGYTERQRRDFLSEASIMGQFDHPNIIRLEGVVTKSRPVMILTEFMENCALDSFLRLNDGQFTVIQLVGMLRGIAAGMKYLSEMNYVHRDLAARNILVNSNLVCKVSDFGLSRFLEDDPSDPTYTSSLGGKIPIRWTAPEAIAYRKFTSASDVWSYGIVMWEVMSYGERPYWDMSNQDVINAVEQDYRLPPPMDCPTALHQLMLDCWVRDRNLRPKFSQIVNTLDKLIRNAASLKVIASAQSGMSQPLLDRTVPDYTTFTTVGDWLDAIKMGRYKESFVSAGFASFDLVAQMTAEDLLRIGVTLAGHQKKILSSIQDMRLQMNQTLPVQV

CDKL1A = molecular target: T10, CDKL1A (Homo sapiens, UniProt Q00532)
T10 construct: purchased in-house DSF kinase panel (SGC-style construct names; the trailing letter is the construct ID)
T10 sequence (Q00532 1-303): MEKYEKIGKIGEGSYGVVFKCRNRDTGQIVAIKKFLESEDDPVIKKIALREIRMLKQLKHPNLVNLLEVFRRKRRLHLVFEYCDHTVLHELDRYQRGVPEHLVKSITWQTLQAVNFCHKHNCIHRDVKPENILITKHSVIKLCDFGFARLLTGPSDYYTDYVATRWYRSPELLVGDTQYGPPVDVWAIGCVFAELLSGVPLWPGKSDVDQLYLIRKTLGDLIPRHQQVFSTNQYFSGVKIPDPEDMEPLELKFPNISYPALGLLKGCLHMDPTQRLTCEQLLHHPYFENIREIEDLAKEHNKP

EPHA7A = molecular target: T11, EPHA7A (Homo sapiens, UniProt Q15375)
T11 construct: purchased in-house DSF kinase panel (SGC-style construct names; the trailing letter is the construct ID)
T11 sequence (Q15375 590-899): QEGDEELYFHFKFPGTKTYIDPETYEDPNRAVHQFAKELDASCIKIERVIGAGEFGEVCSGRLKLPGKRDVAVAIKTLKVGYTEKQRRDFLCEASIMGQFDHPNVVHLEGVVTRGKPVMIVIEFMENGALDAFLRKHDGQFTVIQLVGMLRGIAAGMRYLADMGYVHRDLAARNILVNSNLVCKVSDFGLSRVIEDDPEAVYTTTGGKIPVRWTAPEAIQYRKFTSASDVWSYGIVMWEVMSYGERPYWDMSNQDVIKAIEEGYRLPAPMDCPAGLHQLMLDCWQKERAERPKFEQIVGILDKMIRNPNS

| SMILES | ΔTm at 10 µM (DYRK2A) [°C] | ΔTm at 10 µM (CAMK2BA) [°C] | ΔTm at 10 µM (CAMKK2B) [°C] | ΔTm at 10 µM (CAMK1DA) [°C] | ΔTm at 10 µM (MAP2K1A) [°C] | ΔTm at 10 µM (PAK1A) [°C] | ΔTm at 10 µM (PAK4A) [°C] | ΔTm at 10 µM (CHEK2A) [°C] | ΔTm at 10 µM (EPHB3A) [°C] | ΔTm at 10 µM (CDKL1A) [°C] | ΔTm at 10 µM (EPHA7A) [°C] |
| --- | --- | --- | --- | --- | --- | --- | --- | --- | --- | --- | --- |
| O=C(NCc1ccc(Cl)cc1)Nc1ccc2cc1OCCOCCNc1ccn3ncc-2c3n1 [compound 19] | 0.2 | -0.1 | 3.4 | 0.6 | 0.1 | 0.9 | 0.1 | 4.5 | -0.1 | 0.3 | 0.4 |
| O=C(NCc1ccccc1Cl)Nc1ccc2cc1OCCOCCNc1ccn3ncc-2c3n1 [compound 17] | 1.1 | 0.3 | 3.3 | -0.3 | -0.2 | 0.6 | 0 | 5.3 | 0.3 | 0.4 | 0.4 |
| O=C(NCc1ccc(Cl)cc1F)Nc1ccc2cc1OCCOCCNc1ccn3ncc-2c3n1 [compound 21] | 0.7 | 0.8 | 3.5 | 0.8 | 1.2 | 1 | 0.9 | 5 | -0.4 | 0 | 1.9 |
| O=C(NCc1ccccc1)Nc1ccc2cc1OCCOCCNc1ccn3ncc-2c3n1 [compound 16] | 3.7 | 1.3 | 3.8 | 0 | -0.1 | 0.1 | -0.2 | 6.5 | 0.8 | -0.1 | -0.1 |
| O=C(NCc1ccc(Cl)cc1Cl)Nc1ccc2cc1OCCOCCNc1ccn3ncc-2c3n1 [compound 20] | 0.6 | 1.6 | 1.2 | 1 | 0.8 | 2.5 | 0.8 | 3.6 | 0.1 | 0.9 | 1 |
| O=C(NCc1cccc(Cl)c1)Nc1ccc2cc1OCCOCCNc1ccn3ncc-2c3n1 [compound 18] | 2.8 | 0.8 | 3.1 | 0.4 | 0.2 | 0.7 | 0.1 | 3.6 | 0.2 | -0.1 | 0.8 |

Results, then the compound that gave them:

| ΔTm at 10 µM (DYRK2A) [°C] | ΔTm at 10 µM (CAMK2BA) [°C] | ΔTm at 10 µM (CAMKK2B) [°C] | ΔTm at 10 µM (CAMK1DA) [°C] | ΔTm at 10 µM (MAP2K1A) [°C] | ΔTm at 10 µM (PAK1A) [°C] | ΔTm at 10 µM (PAK4A) [°C] | ΔTm at 10 µM (CHEK2A) [°C] | ΔTm at 10 µM (EPHB3A) [°C] | ΔTm at 10 µM (CDKL1A) [°C] | ΔTm at 10 µM (EPHA7A) [°C] | SMILES |
| --- | --- | --- | --- | --- | --- | --- | --- | --- | --- | --- | --- |
| 3.9 | 0.1 | 3.2 | 1.1 | 0.7 | 0.5 | 2.2 | 6.5 | 0.8 | 0.5 | 1.9 | COc1cc(CNC(=O)Nc2ccc3cc2OCCOCCNc2ccn4ncc-3c4n2)ccc1F [compound 33] |
| 1.5 | -0.2 | 1.5 | 0.4 | 0.6 | 0.1 | 1.3 | 5.8 | 0.4 | 0.2 | 1.1 | COc1ccccc1CNC(=O)Nc1ccc2cc1OCCOCCNc1ccn3ncc-2c3n1 [compound 29] |
| 2.3 | 0 | 0.9 | 1 | 0.3 | 0.7 | 1.8 | 7.2 | 0.9 | 0.5 | 2 | Cc1ccc(F)cc1CNC(=O)Nc1ccc2cc1OCCOCCNc1ccn3ncc-2c3n1 [compound 26] |
| 1.8 | 0 | 1.8 | 1.4 | 0.7 | 1 | 2 | 6.8 | 0.6 | 0.5 | 2.9 | COc1ccc(CNC(=O)Nc2ccc3cc2OCCOCCNc2ccn4ncc-3c4n2)cc1F [compound 32] |
| 4.3 | -0.3 | 0.6 | 0.8 | 0.7 | 0.3 | 1.4 | 6.3 | 0.5 | 0.2 | 1.9 | C[C@H](NC(=O)Nc1ccc2cc1OCCOCCNc1ccn3ncc-2c3n1)c1ccccc1 [compound 34] |
| 0.8 | -0.1 | 1.5 | 1.7 | 0.7 | 1.5 | 2.1 | 9.9 | 1.4 | 0.4 | 3 | O=C(NCc1ccccc1C(F)(F)F)Nc1ccc2cc1OCCOCCNc1ccn3ncc-2c3n1 [compound 27] |
| 1.9 | -0.1 | 1.8 | 1.2 | 0.6 | 0.5 | 1.7 | 7 | 0.8 | 0.6 | 1.8 | COc1ccc(CNC(=O)Nc2ccc3cc2OCCOCCNc2ccn4ncc-3c4n2)cc1 [compound 31] |
| 1.8 | 0.6 | 2.9 | -1.2 | -0.2 | -0.1 | -0.3 | 0.8 | 0.6 | -0.2 | -1.4 | CN1CCN(C(=O)Nc2ccc3cc2OCCOCCNc2ccn4ncc-3c4n2)CC1 [compound 35] |
